Data set [1] has as its system Na+-dependent Cl−/HCO3− exchanger (NCBE). Briefly: Inhibition of the Na+-dependent Cl−/HCO3− exchanger (NCBE) in human endothelial cells (pHi recovery, BCECF fluorescence, FLIPR). The format is cell-based. Conditions: inhibitor concentration of 10 μM; human endothelial cells (ECV-304); relative to 100% and 0% pHi recovery controls, 50 μM HOE 642 present. The protocol: Inhibition of the Na^+-dependent Cl^−/HCO3^− exchanger (NCBE) in human endothelial cells
Human endothelial cells (ECV-304) were detached from culture bottles with the aid of trypsin/EDTA buffer (0.05/0.02% in phosphate buffer) and, after centrifugation (100 g, 5 min), taken up in a buffered salt solution (mmol/l: 115 NaCl, 20 NH4Cl, 5 KCl, 1 CaCl2, 1 MgSO4, 20 N-(2-hydroxyethyl)piperazine-N′-2-ethanesulfonic acid (HEPES), 5 glucose and 1 g/l of bovine serum albumin; pH 7.4). This cell suspension was incubated at 37° C. for 20 min with 5 μM BCECF-acetoxymethyl ester. The cells were then washed and resuspended in a sodium- and bicarbonate-free buffer solution (mmol/l: 5 HEPES, 133.8 choline chloride, 4.7 KCl, 1.25 MgCl2, 0.97 K2HPO4, 0.23 KH2PO4, 5 glucose; pH 7.4).
For subsequent fluorescence measurement in an FLIPR (Fluorescent Imaging Plate Reader) 100 μl of this cell suspension having 20,000 cells in each case were pipetted per well into a 96-well microtiter plate and this microtiter plate was centrifuged (100 g, 5 min).
In the FLIPR, 100 μl of buffer solution in each case were then removed from a further pretreated microtiter plate and pipetted into each of the 96 wells of the measurement plate. A bicarbonate- and sodium-containing buffer solution (mmol/l: 5 HEPES, 93.8 NaCl, 40 NaHCO3, 4.7 KCl, 1.25 CaCl2, 1.25 MgCl2, 0.97 Na2HPO4, 0.23 NaH2PO4, 5 glucose; pH 7.4) which contained 50 μM HOE 642 was used for a 100% control, i.e. a recovery of the intracellular pH (pHi) via the NCBE. For a 0% control, i.e. no pHi recovery at all, the bicarbonate-free, sodium-containing buffer solution (mmol/l: 5 HEPES, 133.8 NaCl, 4.7 KCl, 1.25 CaCl2, 1.25 MgCl2, 0.97 Na2HPO4, 0.23 NaH2PO4, 5 glucose; pH 7.4) was employed, to which 50 μM HOE 642 were likewise added. The compounds according to the invention were added to the sodium- and bicarbonate-containing solution in various concentrations.
After addition of the buffer solutions to the dye-loaded, acidified cells in the measurement plate, the rise in the fluorescence intensity which corresponded to a rise in the pHi in each well of the microtiter plate was determined. The kinetics were in this case recorded at 35° C. for a period of 2 minutes.
The increase in the fluorescence intensities for different concentrations of the compounds according to the invention was related to the two controls and from this inhibitory action of the substances was determined.
Residual Activity of the NCBE at an Inhibitor Concentration of 10 μM

The structures appear in SMILES notation.

Regarding `N#CNS(=O)(=O)c1ccccc1-c1ccc(Cn2c(-c3ccc(Cl)cc3)nc(Cl)c2C=O)cc1` [Example 36, 4′-[4-Chloro-5-formyl-2-(4-chlorphenyl)-imidazole-1-ylmethyl]-biphenyl-2-sulfonylcyanamide], the melting point was in the range of 160 to 187 °C. For the same compound, the “Residual activity in % (residual activity of the NCBE)” value in data set [1] came out at 7.8%.
On the same counts, the results for `COc1ccc(-c2nc(Cl)c(C=O)n2Cc2ccc(-c3ccccc3S(=O)(=O)NC#N)cc2)cc1` [Example 37, 4′-[4-Chloro-5-formyl-2-(4-methoxyphenyl)-imidazole-1-ylmethyl]-biphenyl-2-sulfonylcyanamide] are 110 to 126 °C and 16.8%.
`N#CNS(=O)(=O)c1ccccc1-c1ccc(Cn2c(-c3c(F)cccc3F)nc(Cl)c2C=O)cc1` [Example 38, 4′-[4-Chloro-5-formyl-2-(2,6-difluorphenyl)-imidazole-1-ylmethyl]-biphenyl-2-sulfonylcyanamide] showed a melting point of 164 to 178 °C. Further, in data set [1], the “Residual activity in % (residual activity of the NCBE)” value stood at 8.6%.

Values taken from patent publication US6335451B1, “Five-membered heterocycles having biphenylsulfonyl substitution, with sulfonylcyanamide side chain, compositions containing them, and methods of using them” (Hoechst Aktiengesellschaft, priority 1997, dated 2002).
